According to US20170013861A1, “BIOLOGICAL FORMULATION FOR COMPLEMENTING AN ANIMAL FEED, PROCESS FOR OBTAINING A BIOLOGICAL FORMULATION FOR AN ANIMAL FEED AND AN ANIMAL FEED” (PHB INDUSRIAL S.A., priority 2014, published 2017):

What was measured:
broiler chickens [1] = assay: Feed complementation for broiler chickens, initial growing cycle, 1 to 21 days (Example 5); format: in vivo; details: 0 to 21 days
Source text: For this study it was used 336 chickens, males of Cobb lineage 500, received with one day of life. The chickens were housed in 28 cages, with 12 chickens being in each experimental unit. These chickens were submitted to 7 different treatments, each with 4 repetitions, distributed randomly in 7 blocks of 4 experimental units, with two daily observations being made, in order to evaluate the general conditions of the batch, such as temperature, illumination, water, feed and conditions of the bed of each one of the boxes.
The treatments of each batch of chickens were based on a pattern feed. Using this basal feed, the different treatments were developed as follows:
The quantity of formulation applied in the feeds presented as reference the used quantity of butyrates/feed ton, that is, within the interval from 200 g/feed ton to 1.000 g/feed ton.
The results obtained with these different treatments are related in the Table—Average weight, average weight gain, average feed consumption, alimentary conversion and mortality during the experimental period from 0 to 21 days: […]

broiler chickens [2] = assay: Feed complementation for broiler chickens, whole productive cycle, 1 to 42 days (Example 6); format: in vivo; details: for Alimentary conversion / Average weight gain (GPM)/chicken / Feed consumption / GPD / % death: 0 to 42 days; for % death: broiler chickens; for Average weight (PM)/chicken, PM2: final weight, 42 days
Source text: For this study there were used 2.352 chickens, males of the Cobb lineage 500, received with one day of life. The chickens were housed in 42 boxes, with 56 chickens being in each experimental unit. These chickens were submitted to different treatments, distributed randomly in 06 blocks of 07 experimental units, with two daily observations being made, in order to evaluate the general conditions of the batch, such as temperature, illumination, water, feed and conditions of the bed of each one of the boxes.
The treatments of each chicken batch were based on a pattern feed, with the following composition:
From this basal feed, the different treatments were developed as follows:
The results obtained with these different treatments are shown in the Table—Average weight, average weight gain, average feed consumption, alimentary conversion and mortality during the experimental period from 0 to 42 days: […]

Compound | Alimentary conversion (broiler chickens [1]) | Accumulated mortality % (broiler chickens [1]; broiler chickens) [%] | Alimentary conversion (broiler chickens [2]) | Average weight gain (GPM)/chicken (broiler chickens [2]) | Feed consumption (broiler chickens [2]) [kg] | GPD (broiler chickens [2]) | % death (broiler chickens [2]) [%] | Average weight (PM)/chicken, PM2 (broiler chickens [2])
CCCC(=O)[O-].[Na+] [Treatment T2, sodium butyrate] | 1.371 | 10.41 | 1.789 | 2.709 abc kg | 5.058 | 65.5 a g/day | 6.47 | 2.753 abc kg
calcium butyrate [T3 - Ca, butyrate 45%] | – | – | 1.874 | 2.655 bc kg | 5.116 | 64.3 b g/day | 4.91 | 2.699 c kg
